≈ marks a conversion by molar mass, not a printed value.
Assays:
Format in all cases: cell-based
[1] = system: Candida albicans (ATCC 90028); experiment: LD-AST against fungal cells; details: thin strip LD-AST; images at 3 and 4 hours, verified overnight
Experimental: A series of LD-AST units having different levels of Amphotoricin B were prepared and tested against Candida albicans (ATCC 90028). […] Therefore, the MIC was determined to be 2 μg/mL. The conclusion of growth at the LD-AST unit corresponding to 1 μg/mL, though not easily noticed in FIG. 29 by visual inspection of t=3 and 4 incubation images, was verified by referring to the overnight incubation row in the figure.
To align imaging data acquired at different time points (2, 3, 4 and 5 hours after seeding), 2D-2D registration (only translation and rotation are permitted) with rigid transformation constrains was performed. The corresponding intensity feature points between the previous time point (tn-1 or tn-2) image, so-called reference, and each further image, so-called floating image, were automatically identified using the key-point detector SURF and used for aligning imaging date with respect to the reference data. Intensity features present at the reference image were classified as background while intensity features appearing on further images (cells/bugs) were classified as foreground. The position of given individual microcolonies have been marked in consecutive images. Setting the background allows enhanced detection of microcolonies and their growth.

Escherichia coli [2] = experiment: conventional microdilution methodology (reference)
Experimental: (§1) Intermediate twofold dilutions of antimicrobial agents in broth (Tryptic soy, and in some cases Brain Heart Infusion). 100 μL of the antimicrobial agent/broth solutions were dispensed into each well of 96-well plates in triplicates. Then, to each well 10 μL of the 5×10^6 CFU/mL cell suspension, which was prepared according to the method of example 5, was added. The plate was sealed and placed in the incubator at 35-37° C. for 16-24 hours for MIC value to be determined.

Escherichia coli [3] = experiment: LD-AST (local diffusion antimicrobial susceptibility testing) on annular-disk microwell strips
Experimental: In one case, an LD-AST test strip was fabricated following the method of Examples 9A and 10, coating different concentrations of Norfloxacin on the annular disks in 0-16 μg range. Three types of strips were prepared: low volume agar type with 80 μL of gel per microwell, medium volume agar type with 150 μL of gel per microwell, and high-volume agar type with 350 μL of gel per microwell. The corresponding gel thickness was respectively 2 mm, 4 mm, and 9 mm. The annular disks were then placed on the gels. The images of the microwell strip, for the case of low volume agar type, is presented in FIGS. 23A and 23B, where 220, 221, 222, and 223 respectively, refer to the drug impregnated annular disc, the drug exposure region, the guiding ring, and the gel. 1 μL of Escherichia coli cell suspension, which had been prepared according to the method of Example 12, was dispensed into the ROI of each LD-AST unit. The strips were incubated at 37° C. and their ROI were imaged by an epi-illuminated microscope having a 5× objective once every hour. These images are presented in FIGS. 24A-24C (low volume gel), 25A-C (medium volume gel), and 26A-C (high volume gel) for incubation times of t=3hours, t=4hours and t=overnight, respectively.
The labels in FIGS. 24A-24C show the mass of the of the antimicrobial agent that was coated on the annular disk during preparation. […] Despite this time variation, an effective antimicrobial agent concentration may be associated with each microwell. This effective antimicrobial agent concentration may be estimated, for example, by modeling the diffusion of the antimicrobial agent, as in FIG. 21A, or, for example, by comparing the results of the LD-AST assay to a reference assay such as broth microdilution assay.
In the case of low volume gels (FIG. 24A-24C), since the antimicrobial agent is expected rapidly and efficiently diffuse throughout the volume of the solid phase growth medium, and since it is expected that the antimicrobial agent diffuses nearly completely from the annular disk, the effective antimicrobial agent concentration may be estimated by dividing the mass of the antimicrobial agent that was provided on the annular disk by the volume of the gel. […] Accordingly, the effective antimicrobial agent concentration for the case low-volume gels of FIGS. 24A-24C was estimated to be 0.25 times of the drug mass that was impregnated on the disk. For instance, the drug concentration at the drug exposure region of the annular disk loaded by 16 μg of Norfloxacin is 4 μg/mL.
Comparing FIGS. 24B and 24C, one can observe (or computationally determine) that for the LD-AST unit labeled by 0.5 μg (having an estimated effective concentration of 0.1 μg/ml), there appears to be a lack of visible growth between 3 and 4 hours of incubation. This halting in growth was verified by imaging the ROIs after overnight culture, as illustrated in FIG. 24C. As a result, the MIC value for this test was estimated as 0.1 μg/mL. […]
FIG. 25A-25C and 26A-26C, respectively, correspond to intermediate volume (gel volume of 150 μL in microwell) and high volume (gel volume of 350 μL in microwell) cases. In these cases, due to the larger temporal variation in concentration during incubation, an effective antimicrobial agent concentration may be determined by correlating the observed results with a reference microdilution assay. […]

Escherichia coli [4] = experiment: Vitek 2 (Biomerieux) reference AST
[5] = system: Methicillin-resistant Staphylococcus aureus (MRSA 111 with not strong resistance); experiment: thin strip type LD-AST on clean suspension and positive blood culture
Experimental: Methicillin-resistant Staphylococcus aureus (MRSA 111 with not strong resistance) was spiked into 10 mL of whole blood samples at the nominal concentration of 5-10 CFU/ml. Then, an FA Plus aerobic blood culture bottles were inoculated with 10 mL of spiked whole blood and incubated at 37° C. until the culture turns positive. At this time, 30 μL of glycerol stock of the bacterial cell was inoculated in 3 mL of TSB and incubated at 37° C. for 3 hr with shaking at 150 rpm. Based on OD measurements, serial dilutions of the respective bacteria were prepared in TSB at a nominal concentration of 10^5 CFU/mL. An aliquot of the positive blood sample was diluted in TSB by 1000-fold. The two samples were simultaneously tested for susceptibility against Oxacillin with “thin strip” type LD-AST. The results, which are presented in FIG. 30, indicate similar MIC value of 1 μg/mL.

Staphylococcus aureus [6] = experiment: Vitek 2 reference AST
S. aureus = experiment: antimicrobial dilution pipetted directly onto thin-type gel microwells (no annular disk); details: Staphylococcus aureus; 20 μL of two-fold dilutions pipetted onto thin-type microwells; 37° C. until control colonies visible
Experimental: In order to verify the observed difference between the MIC for the low-volume gel and the typical MIC values reported by EUCAST for S. aureus and Vancomycin was not caused by the geometry of the annular disk and its corresponding diffusion dynamics, the following experiment was performed. A two-fold serial dilution of the target antimicrobial agent was prepared in water. Then 20 μL of each dilution was pipetted onto the surface of “thin-type” microwells that were prepared according to the method of Example 10. After about 10 minutes, the antimicrobial agent solution had diffused into top of the gel. 1 μL of a microbial cell suspension was then added and together they were incubated at 37° C. until the microbial colonies at the control well (zero antimicrobial agent concentration) were visible. The MIC found in this manner was 3 μg/mL.

Staphylococcus aureus [7] = experiment: broth microdilution AST according to Example 11
Experimental: as §1

Staphylococcus aureus [8] = experiment: LD-AST on annular-disk microwell strips
Experimental: In this case, the cell proliferation at the borderline LD-AST unit, such as the one labeled 12 μg, would be preferably determined by image processing. For example, time-lapse microscopic images can be acquired are aligned and difference images (obtained via subtraction of aligned images) may be processed to detect evidence of growth.
In order to further illustrate the insensitivity of the LD-AST to variations of the antimicrobial agent concentration at the ROIs during the first hour of the assay, the assay was performed in two different protocols; a first direct protocol involving immediate inoculation of the microbial cell suspension after contacting the annular disks with the solid phase growth medium, and a second delayed protocol in which the microbial cell suspension was inoculated 1 hour after contacting the annular disks with the solid phase growth medium.
Blank AST paper disks (Hardy Diagnostics, Z7121) that were 6.35 mm in diameter and 0.75 mm thick, were modified to include a 3 mm hole in the center.
Each paper disk has the capacity to absorb approximately 20 μL of liquid before being saturated. For each antibiotic, a two-fold serial dilution in water was made which included concentrations near its suspected MIC value. The disks were separated into individual wells of a 96-well microplate, and then 20 μL of each antibiotic dilution was pipetted over paper disks ensuring that the entire disk was evenly wetted. After incubation for about 20 minutes at room temperature, the disks in the microplate were dried in vacuum desiccator. Alternatively, individual disk separated in the microplate well could be soaked in an excess volume (30 to 50 μL) of the antibiotic dilution. After incubation, the excess fluid is removed by pipette and dried in a vacuum desiccator. The microplate was then covered with an adhesive cover and stored at 4° C.
Tryptic soy agar blood base (Hardy Diagnostics C5221) was prepared with 1% defibrinated sheep's blood according to the manufacturer. While the agar was still warm (45 to 50° C.), it was pipetted into the wells of an 12×8-well strip plate. For “Thin-gel” case, approximately 50 μL of agar was dispensed into an individual well to give a gel thickness of ~1 mm. For the “mid-thick gel” case, approximately 150 μL of agar was dispensed to gel a gel thickness of ~3 mm. Finally, for the “thick gel” case, approximately 350 μL of agar was dispensed to gel a gel thickness of ~7 mm. The agar gels were then cooled to room temperature to solidify, and then either used immediately or stored at 4° C. with an adhesive cover over the wells to prevent gel drying. […]

With Amphotoricin B the MIC [1] was 2 µg/mL.
In the case of `CCn1cc(C(=O)O)c(=O)c2cc(F)c(N3CCNCC3)cc21` [Norfloxacin], the MIC value (Escherichia coli [2]) is reported as 0.1 µg/mL (≈ 0.313 µM), the MIC (Escherichia coli [3]; Escherichia coli, low volume gel strip, no growth between 3 and 4 hours of incubation, verified overnight, read-out: MIC value (estimated effective concentration)) is reported as 0.1 µg/mL (≈ 0.313 µM) and the “classification of MIC per CLSI/EUCAST interpretation standards” value (Escherichia coli [3]; LD-AST MIC, low volume gel) is reported as “S”. The “antimicrobial mass label of the microwell at which microbial growth halts” value (Escherichia coli [3]; high volume (gel volume of 350 μL in microwell)) was 1 µg, the “antimicrobial mass label of the microwell at which microbial growth halts” value (Escherichia coli [3]; intermediate volume (gel volume of 150 μL in microwell)) was 1 µg and the “antimicrobial mass coated on annular disk of the LD-AST unit showing lack of visible growth” value (Escherichia coli [3]; low volume gel, between 3 and 4 hours of incubation) was 0.5 µg. The “susceptibility category reported by Vitek 2” value (Escherichia coli [4]) was “S” and the MIC (Escherichia coli [4]; Escherichia coli, read-out: MIC value reported by Vitek 2) was ≤ 0.5 µg/mL.
In the case of `Cc1onc(-c2ccccc2)c1C(=O)N[C@@H]1C(=O)N2[C@@H]1SC(C)(C)[C@@H]2C(=O)O` [Oxacillin], the MIC ([5]; Staphylococcus aureus, MRSA, clean cell suspension in TSB, nominal 10^5 CFU/mL) is reported as 1 µg/mL (≈ 2.49 µM) and the MIC value ([5]; positive blood culture diluted in TSB by 1000-fold) is reported as 1 µg/mL (≈ 2.49 µM).
In the case of `CN[C@H](CC(C)C)C(=O)N[C@H]1C(=O)N[C@@H](CC(N)=O)C(=O)N[C@H]2C(=O)N[C@H]3C(=O)N[C@H](C(=O)N[C@H](C(=O)O)c4cc(O)cc(O)c4-c4cc3ccc4O)[C@H](O)c3ccc(c(Cl)c3)Oc3cc2cc(c3O[C@@H]2O[C@H](CO)[C@@H](O)[C@H](O)[C@H]2O[C@H]2C[C@](C)(N)[C@H](O)[C@H](C)O2)Oc2ccc(cc2Cl)[C@H]1O` [Vancomycin], the “susceptibility category from Vitek 2” value (Staphylococcus aureus [6]) is reported as “S”, the MIC (Staphylococcus aureus [6]; Staphylococcus aureus, read-out: MIC value from Vitek 2) is reported as 1 µg/mL (≈ 0.69 µM) and the MIC (S. aureus) is reported as 3 µg/mL (≈ 2.07 µM). The MIC (Staphylococcus aureus [7]; Staphylococcus aureus, broth microdilution, Example 11) was 1.5 µg/mL (≈ 1.04 µM), the “classification of MIC according to CLSI” value (Staphylococcus aureus [7]; broth microdilution MIC) was “S” and the “classification of MIC per CLSI interpretation standards” value (Staphylococcus aureus [8]; LD-AST MIC, thin type) was “I”. For the same molecule, the “MIC, direct protocol versus delayed (1 hour) inoculation protocol” value (Staphylococcus aureus [8]; mid-thick strip, 4 hours after inoculation (FIG. 28)) was “equal”, the “growth at borderline LD-AST unit (difference image of time-lapse images)” value (Staphylococcus aureus [8]; mid-thick type, unit labeled 12 μg, verified by overnight incubation) was “continued to grow” and the MIC value (Staphylococcus aureus [8]; thin type LD-AST unit (FIG. 27A), 3 and 4 hours incubation) was 3 µg/mL (≈ 2.07 µM).

— patent US20260258471A1, “SYSTEMS AND METHODS FOR MICROCOLONY GROWTH AND MICROBIAL CELL CHARACTERIZATION” (priority 2018, published 2026)
